Laboratory results published in patent US9376425B2, “Heterocyclic compounds as MDM2 inhibitors for the treatment of cancer” (AMGEN INC., priority 2011, dated 2016).

Biological target: T1, human MDM2 (GST-hMDM2 1-188), interaction with biotinylated-p53 (1-83) (Homo sapiens, UniProt Q00987)
T1 construct: Amino acid residues 1-188 of human MDM2 were expressed; made in house; host or cells: Escherichia coli
Test: improved HTRF assay (HTRF2 assay), inhibition of HDM2-p53 interaction
Format: binding
Conditions: 0.2 nM GST-hMDM2, 0.5 nM biotinylated-p53, 100 mM KF
Method in brief: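 GST-hMDM2 preincubated 20 min at RT with serially diluted compound, then biotinylated p53 (1-83, E. coli) added for 60 min. Detection with SA-XLent, anti-GST cryptate and KF, equilibrated >4 h; final DMSO 2%. TR-FRET read; % inhibition calculated relative to nutlin-3.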

T1 sequence (Q00987 1-188): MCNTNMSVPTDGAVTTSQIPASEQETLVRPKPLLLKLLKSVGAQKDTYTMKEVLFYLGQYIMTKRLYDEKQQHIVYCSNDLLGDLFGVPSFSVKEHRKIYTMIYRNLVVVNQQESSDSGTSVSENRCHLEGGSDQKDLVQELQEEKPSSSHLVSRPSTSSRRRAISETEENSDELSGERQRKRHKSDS

Molecule | IC50 [nM]
CC(C)[C@@H](CN(c1ccccc1F)S(=O)(=O)C(C)(C)C)N1C(=O)[C@@H](CC(=O)O)O[C@H](c2cccc(Cl)c2)[C@H]1c1ccc(Cl)cc1 (single isomer, unassigned) [Example 201, 2-((2R,5R,6R)-6-(3-chlorophenyl)-5-(4-chlorophenyl)-4-((S)-1-(N-(2-fluorophenyl)-2-methylpropan-2-ylsulfonamido)-3-methylbutan-2-yl)-3-oxomorpholin-2-yl)acetic acid or 2-((2S,5R,6R)-6-(3-chlorophenyl)-5-(4-chlorophenyl)-4-((S)-1-(N-(2-fluorophenyl)-2-methylpropan-2-ylsulfonamido)-3-methylbutan-2-yl)-3-oxomorpholin-2-yl)acetic acid] | 2
CC[C@@H](CN(c1ncccc1F)S(=O)(=O)C1CC1)N1C(=O)[C@@H](CC(=O)O)O[C@H](c2cccc(Cl)c2)[C@H]1c1ccc(Cl)cc1 (single isomer, unassigned) [Example 176, 2-((2R,5R,6R)-6-(3-chlorophenyl)-5-(4-chlorophenyl)-4-((S)-1-(N-(3-fluoropyridin-2-yl)cyclopropanesulfonamido)butan-2-yl)-3-oxomorpholin-2-yl)acetic acid or 2-((2S,5R,6R)-6-(3-chlorophenyl)-5-(4-chlorophenyl)-4-((S)-1-(N-(3-fluoropyridin-2-yl)cyclopropanesulfonamido)butan-2-yl)-3-oxomorpholin-2-yl)acetic acid] | < 1
CC[C@@H](CS(=O)(=O)C(C)(C)C)N1C(=O)[C@@H](CC(=O)O)O[C@H](c2cc(Cl)cc(Cl)c2)[C@H]1c1ccc(Cl)cc1 (single isomer, unassigned) [Example 147, 2-((2R,5R,6R)-5-(4-chlorophenyl)-6-(3,5-dichlorophenyl)-4-((S)-1-(tert-butylsulfonyl)butan-2-yl)-3-oxomorpholin-2-yl)acetic acid or 2-((2S,5R,6R)-5-(4-chlorophenyl)-6-(3,5-dichlorophenyl)-4-((S)-1-(tert-butylsulfonyl)butan-2-yl)-3-oxomorpholin-2-yl)acetic acid] | 6
2-((2R,5R,6R)-6-(3-chlorophenyl)-5-(4-chlorophenyl)-4-((S)-1-(N-(2-cyanophenyl)cyclopropanesulfonamido)butan-2-yl)-3-oxomorpholin-2-yl)acetic acid or 2-((2S,5R,6R)-6-(3-chlorophenyl)-5-(4-chlorophenyl)-4-((S)-1-(N-(2-cyanophenyl)cyclopropanesulfonamido)butan-2-yl)-3-oxomorpholin-2-yl)acetic acid [Example 206] | 145
CC[C@@H](CS(=O)(=O)C1CCC1)N1C(=O)[C@@H](CC(=O)O)O[C@H](c2cccc(Cl)c2)[C@H]1c1ccc(Cl)cc1 (single isomer, unassigned) [Example 141, 2-((2R,5R,6R)-6-(3-chlorophenyl)-5-(4-chlorophenyl)-4-((S)-1-(cyclobutylsulfonyl)butan-2-yl)-3-oxomorpholin-2-yl)acetic acid or 2-((2S,5R,6R)-6-(3-chlorophenyl)-5-(4-chlorophenyl)-4-((S)-1-(cyclobutylsulfonyl)butan-2-yl)-3-oxomorpholin-2-yl)acetic acid] | 1
CC(C)[C@@H](CS(=O)(=O)C(C)(C)C)N1C(=O)[C@@H](CC(=O)O)O[C@H](c2cccc(Cl)c2)[C@H]1c1ccc(Cl)c(F)c1 (single isomer, unassigned) [Example 313] | 38
CC[C@@H](CS(=O)(=O)C(C)(C)C)N1C(=O)[C@@H](CNC(=O)N(CC)CC)O[C@H](c2cccc(Cl)c2)[C@H]1c1ccc(Cl)cc1 (single isomer, unassigned) [Example 375, 3-(((2R,5R,6R)-4-((S)-1-(tert-Butylsulfonyl)butan-2-yl)-6-(3-chlorophenyl)-5-(4-chlorophenyl)-3-oxomorpholin-2-yl)methyl)-1,1-diethylurea or 3-(((2S,5R,6R)-4-((S)-1-(tert-butylsulfonyl)butan-2-yl)-6-(3-chlorophenyl)-5-(4-chlorophenyl)-3-oxomorpholin-2-yl)methyl)-1,1-diethylurea] | 55
C[C@@H](CS(=O)(=O)C(C)(C)C)N1C(=O)[C@H](CC(N)=O)O[C@H](c2cccc(Cl)c2)[C@H]1c1ccc(Cl)cc1 (single isomer, unassigned) [Example 226, 2-((2S,5R,6R)-4-((S)-1-(tert-butylsulfonyl)propan-2-yl)-6-(3-chlorophenyl)-5-(4-chlorophenyl)-3-oxomorpholin-2-yl)acetamide or 2-((2R,5R,6R)-4-((S)-1-(tert-butylsulfonyl)propan-2-yl)-6-(3-chlorophenyl)-5-(4-chlorophenyl)-3-oxomorpholin-2-yl)acetamide] | 11
COc1ccc([C@H]2O[C@H](CC(=O)O)C(=O)N([C@H](CSC(C)(C)C)C3CC3)[C@@H]2c2ccc(Cl)cc2)cc1Cl (single isomer, unassigned) [Example 328, 2-((2R,5R,6R)-4-((S)-2-(tert-Butylthio)-1-cyclopropylethyl)-6-(3-chloro-4-methoxyphenyl)-5-(4-chlorophenyl)-3-oxomorpholin-2-yl)acetic acid or 2-((2S,5R,6R)-4-((S)-2-(tert-butylthio)-1-cyclopropylethyl)-6-(3-chloro-4-methoxyphenyl)-5-(4-chlorophenyl)-3-oxomorpholin-2-yl)acetic acid] | 12
CC(C)(C)S(=O)(=O)C[C@H](C1CC1)N1C(=O)[C@H](Cc2ccno2)O[C@H](c2cccc(Cl)c2)[C@H]1c1ccc(Cl)cc1 [Example 384, (2S,5R,6R)-4-((S)-2-(tert-Butylsulfonyl)-1-cyclopropylethyl)-6-(3-chlorophenyl)-5-(4-chlorophenyl)-2-(isoxazol-5-ylmethyl)morpholin-3-one] | 13
CC[C@@H](CN(c1ccccc1F)S(=O)(=O)C1CC1)N1C(=O)[C@@H]([C@@H](C)C(=O)O)O[C@H](c2cccc(Cl)c2)[C@H]1c1ccc(Cl)cc1 (single isomer, unassigned) [Example 254] | 1
CC[C@@H](CS(=O)(=O)[C@H](C)C(C)C)N1C(=O)[C@H](CC(=O)O)O[C@H](c2cccc(Cl)c2)[C@H]1c1ccc(Cl)cc1 (single isomer, unassigned) [Example 285] | 9
O=C(O)C[C@H]1O[C@H](c2cccc(Cl)c2)[C@@H](c2ccc(Cl)cc2)N([C@H](CS(=O)(=O)Nc2ccccc2F)C2CC2)C1=O (single isomer, unassigned) [Example 295, 2-((2R,5R,6R)-6-(3-Chlorophenyl)-5-(4-chlorophenyl)-4-((S)-1-cyclopropyl-2-(N-(2-fluorophenyl)sulfamoyl)ethyl)-3-oxomorpholin-2-yl)acetic acid or 2-((2S,5R,6R)-6-(3-chlorophenyl)-5-(4-chlorophenyl)-4-((S)-1-cyclopropyl-2-(N-(2-fluorophenyl)sulfamoyl)ethyl)-3-oxomorpholin-2-yl)acetic acid] | 2
